In one assay the test system is maltose dehydrogenase (acceptor). Put plainly: Hydrogen acceptor (coenzyme) of maltose dehydrogenase (acceptor) in oxidation of maltose. It is filed as biochemical, Staphylococcus sp. B-0875. Details: Relative Activity (%): concentration or dose not given beside the values. Conditions: as hydrogen acceptor; Reaction pH 7.5; substrate maltose. As for the experimental part: (§1) The above reaction mixture (1.0 ml) in a small test tube is pre-incubated at 37° C. Enzyme solution (10 μl) is added thereto and incubated at 37° C. for 10 min. The reaction is stopped by adding 0.1N HCl (2.0 ml) and the optical density at 550 nm (As) is measured. Distilled water (10 μl) is added as a control and the amount measured at 550 nm (Ab).
Hydrogen acceptor (coenzyme) of maltose dehydrogenase (acceptor) in the oxidative reaction (dehydrogenation) of maltose is measured according to the assay method. Maltose dehydrogenase (acceptor) of the present invention requires no NAD or NADP as a coenzyme. A decrease in soluble oxygen is observed at least whwn PMS, 1-methoxy-phenazine methosulfate (MPMS) or meldola blue is used as a hydrogen acceptor.
Regarding `COc1cccc2c1nc1ccccc1[n+]2C` [MPMS, 1-methoxy-phenazine methosulfate], the “Relative Activity (%)” value is recorded as 30%.

As to `NC(=O)c1ccc[n+]([C@@H]2O[C@H](COP(=O)([O-])OP(=O)(O)OC[C@H]3O[C@@H](n4cnc5c(N)ncnc54)[C@H](O)[C@@H]3O)[C@@H](O)[C@H]2O)c1` [NAD, nicotine adenine dinucleotide], the “Relative Activity (%)” value stood at 0%.

On to `NC(=O)c1ccc[n+]([C@@H]2O[C@H](COP(=O)([O-])OP(=O)(O)OC[C@H]3O[C@@H](n4cnc5c(N)ncnc54)[C@H](OP(=O)(O)O)[C@@H]3O)[C@@H](O)[C@H]2O)c1` [NADP, nicotine adenine dinucleotide phosphate], for which the “Relative Activity (%)” value stood at 0%.

Take `COc1cc(-c2ccc(-[n+]3nc(-c4ccccc4)nn3-c3ccc([N+](=O)[O-])cc3)c(OC)c2)ccc1-[n+]1nc(-c2ccccc2)nn1-c1ccc([N+](=O)[O-])cc1` [NTB, nitrotetrazolium blue]: the “Relative Activity (%)” value is recorded as 0%.

On to `C[n+]1c2ccccc2nc2ccccc21` [PMS, phenazine methosulfate], for which the “Relative Activity (%)” value was found to be 100%.

Consider `C[N+](C)=c1ccc2nc3c(ccc4ccccc43)oc-2c1` [meldola blue, 9-dimethylaminobenzophenazoxonium chloride], for which the “Relative Activity (%)” value amounted to 20%.

On to `CN(C)c1ccc2nc3ccc(=[N+](C)C)cc-3sc2c1` [methylene blue], for which the “Relative Activity (%)” value is reported as 0%.

Still in this assay, the particulars now being: oxidative reaction of maltose.
As for `CC(=O)Nc1cccc2c1nc1ccccc1[n+]2C` [1-acetamide-phenazine methosulfate], the “ability to act as hydrogen acceptor” value was “can also be a hydrogen acceptor”.

For `O=C1C(Cl)=CC(=Nc2ccc(O)cc2)C=C1Cl` [2,6-dichlorophenolindophenol], the “ability to act as hydrogen acceptor” value was “can also be a hydrogen acceptor”.

For another assay, the system named is serum amylase. In words: Serum amylase assay with different hydrogen acceptors (Example 12). It is filed as biochemical. Conditions: 0.002% hydrogen acceptor; human serum 20 μl; 37° C.; absorbancy at 550 nm. As for the experimental part: 40 mM phosphate buffer pH 7.0
maltose dehydrogenase (acceptor) (16.7 U/ml)
Human serun (20 μl) was added to the reaction mixture hereinabove (the hydrogen acceptor is shown in Table 6), and the material was incubated at 37° C. for 5 mins. Reaction mixture II (0.4 ml) was added thereto and the material was incubated at 37° C. Changes in absorbancy at 550 nm were measured. The results are shown in Table 6, from which it will be seen that serum amylase can be measured whatever the hydrogen acceptor.
`CC(=O)Nc1cccc2c1nc1ccccc1[n+]2C` [1-acetamide-phenazine methosulfate]: the “Relative Amylase Activity” value is on record as 103%.

For `COc1cccc2c1nc1ccccc1[n+]2C` [MPMS, 1-methoxy-phenazine methosulfate], the “Relative Amylase Activity” value was found to be 102%.

Turning to `C[n+]1c2ccccc2nc2ccccc21` [PMS, phenazine methosulfate], the “Relative Amylase Activity” value is given as 100%.

For `C[N+](C)=c1ccc2nc3c(ccc4ccccc43)oc-2c1` [meldola blue, 9-dimethylaminobenzophenazoxonium chloride], the “Relative Amylase Activity” value is reported as 97.4%.

The next assay relates to maltose dehydrogenase (acceptor). Put plainly: Effect of surface-active agents on enzyme activity. It is filed as biochemical, Staphylococcus sp. B-0875. Particulars: Concentration 0.1%, in place of 0.2% Triton X-100; no addition = 100. The protocol:
as §1
Surface active agents as in Table 5 are added one at a time to aliquots of the reaction mixture as in the assay method, in place of 0.2% Triton X-100, and the enzyme activity is measured.
On to `CCCCCCCCCCCCCCCC[N+](C)(C)C.[Cl-]` [Cetyl trimethylammonium chloride], for which the “Relative Activity (%)” value is recorded as 94%.

`CCCCCCCCCCCCOS(=O)(=O)O` [SDS]: the “Relative Activity (%)” value is on record as 3.8%.

With `CCCCCCCCCCCCCCCC(=O)N(C)CC(=O)[O-].[Na+]` [Sarcosinate PN], the “Relative Activity (%)” value was 114%.

Regarding `C[C@H](CCC(=O)O)[C@H]1CC[C@H]2[C@@H]3[C@H](O)C[C@@H]4C[C@H](O)CC[C@]4(C)[C@H]3C[C@H](O)[C@]12C` [Sodium cholate], the “Relative Activity (%)” value stood at 86%.

For Sodium laurylbenzene sulfate, the “Relative Activity (%)” value was 0.2%.

As to Span-85, the “Relative Activity (%)” value was found to be 103%.

Triton X-100: the “Relative Activity (%)” value came out at 115%.

Take Tween-80: the “Relative Activity (%)” value worked out at 104%.

For the next assay the test system is unchanged.
Assay: not given
Details: not given
It is filed as biochemical, Staphylococcus sp. B-0875. As for the experimental part:
as §1
Metallic ions, EDTA or KCN shown in Table 4 is added to the reaction mixture as in the assay method, and the effect thereof is measured. The results are shown in […]
With `O=C(O)CN(CCN(CC(=O)O)CC(=O)O)CC(=O)O` [EDTA], the “Relative Activity (%)” value is reported as 73%.

The assay is the same for the next values; noted with them: 1.0 mM additive in reaction mixture; no addition = 100.
Turning to `[Ba+2].[Cl-].[Cl-]` [BaCl2], the “Relative Activity (%)” value stood at 61.2%.

For the molecule `[Ca+2].[Cl-].[Cl-]` [CaCl2], the “Relative Activity (%)” value was 101%.

In the case of `[Cl-].[Cl-].[Co+2]` [CoCl2], the “Relative Activity (%)” value worked out at 17.9%.

On to `[Cl][Cu][Cl]` [CuCl2], for which the “Relative Activity (%)” value was determined as 0%.

As to `[Cl-].[Li+]` [LiCl], the “Relative Activity (%)” value stood at 95%.

On to `[Cl-].[Cl-].[Mg+2]` [MgCl2], for which the “Relative Activity (%)” value amounted to 106%.

In the case of `[Cl][Mn][Cl]` [MnCl2], the “Relative Activity (%)” value is on record as 13.4%.

Turning to `[N-]=[N+]=[N-].[Na+]` [NaN3], the “Relative Activity (%)” value is reported as 95%.

Consider `[Cl-].[Cl-].[Zn+2]` [ZnCl2], for which the “Relative Activity (%)” value is listed as 4.5%.

The test system is the same in another assay. In words: Km value, substrate concentration-reaction rate relation. It is filed as biochemical, Staphylococcus sp. B-0875. Particulars: approximate, calculated according to FIG. 5; no linear Lineweaver-Burk plot. The text has this: Under the experimental conditions, Vmax cannot be determined and no linear Lineweaver-Burk plot can be obtained.
The Km is the concentration of substrate that gives half-maximal velocity. On to `OC[C@H]1O[C@H](O[C@H]2[C@H](O)[C@@H](O)[C@H](O)O[C@@H]2CO)[C@H](O)[C@@H](O)[C@@H]1O` [maltose], for which the Michaelis constant (Km) is approximately 3800 µM.

As to `OC[C@H]1O[C@H](O[C@H]2[C@H](O)[C@@H](O)[C@H](O)O[C@@H]2CO)[C@H](O)[C@@H](O)[C@@H]1O` [β-maltose], the Michaelis constant (Km) is 1360 µM.

Another assay has the same test system. Put plainly: Substrate specificity of maltose dehydrogenase (acceptor), PMS/NTB assay at 550 nm. It counts as biochemical, Staphylococcus sp. B-0875. Particulars: substrate each 0.1M, 0.1 ml, in place of maltose; 37° C., 10 min. The protocol:
20 mM phosphate buffer (pH 7.5)
0.1% bovine serum albumin
0.025% nitrotetrazolium blue (NTB)
0.001% phenazine methosulfate (PMS: hydrogen acceptor)
as §1
One unit is defined by the amount of enzyme which oxidizes (dehydrogenates)1 μmole of maltose in one minute and enzyme activity is calculated by the following equation: [formula]
Maltose in the above assay method is replaced by the substrates in Table 2 (each 0.1M, 0.1 ml) and assayed according to the above assay method.
Turning to `CCO` [ethanol], the “Relative Activity (%)” value is reported as 0%.

For `O=C(CO)[C@@H](O)[C@H](O)[C@H](O)CO` [fructose], the “Relative Activity (%)” value amounted to 31.4%.

On to `O=C[C@H](O)[C@@H](O)[C@@H](O)[C@H](O)CO` [galactose], for which the “Relative Activity (%)” value was 56.1%.

With `O=C[C@H](O)[C@@H](O)[C@H](O)[C@H](O)CO` [glucose], the “Relative Activity (%)” value is recorded as 80.0%.

For the molecule `OCC(O)CO` [glycerol], the “Relative Activity (%)” value is reported as 0%.

`O[C@H]1[C@H](O)[C@@H](O)[C@H](O)[C@@H](O)[C@H]1O` [inositol]: the “Relative Activity (%)” value turned out to be 0%.

On to `OC[C@H]1O[C@@H](O[C@H]2[C@H](O)[C@@H](O)C(O)O[C@@H]2CO)[C@H](O)[C@@H](O)[C@H]1O` (stereo partly drawn) [lactose], for which the “Relative Activity (%)” value worked out at 58.2%.

As to `OC[C@H]1O[C@H](O[C@H]2[C@H](O)[C@@H](O)[C@@H](O[C@H]3[C@H](O)[C@@H](O)[C@@H](O[C@H]4[C@H](O)[C@@H](O)[C@@H](O[C@H]5[C@H](O)[C@@H](O)[C@@H](O[C@H]6[C@H](O)[C@@H](O)[C@@H](O[C@H]7[C@H](O)[C@@H](O)C(O)O[C@@H]7CO)O[C@@H]6CO)O[C@@H]5CO)O[C@@H]4CO)O[C@@H]3CO)O[C@@H]2CO)[C@H](O)[C@@H](O)[C@@H]1O` (stereo partly drawn) [maltoheptaose], the “Relative Activity (%)” value is on record as 22.4%.

Take `OC[C@H]1O[C@H](O[C@H]2[C@H](O)[C@@H](O)[C@@H](O[C@H]3[C@H](O)[C@@H](O)[C@@H](O[C@H]4[C@H](O)[C@@H](O)[C@@H](O[C@H]5[C@H](O)[C@@H](O)[C@@H](O[C@H]6[C@H](O)[C@@H](O)C(O)O[C@@H]6CO)O[C@@H]5CO)O[C@@H]4CO)O[C@@H]3CO)O[C@@H]2CO)[C@H](O)[C@@H](O)[C@@H]1O` (stereo partly drawn) [maltohexaose]: the “Relative Activity (%)” value was 28.6%.

Turning to `OC[C@H]1O[C@H](O[C@H]2[C@H](O)[C@@H](O)[C@@H](O[C@H]3[C@H](O)[C@@H](O)[C@@H](O[C@H]4[C@H](O)[C@@H](O)[C@@H](O[C@H]5[C@H](O)[C@@H](O)C(O)O[C@@H]5CO)O[C@@H]4CO)O[C@@H]3CO)O[C@@H]2CO)[C@H](O)[C@@H](O)[C@@H]1O` (stereo partly drawn) [maltopentaose], the “Relative Activity (%)” value is reported as 36.4%.

For `OC[C@H]1O[C@H](O[C@H]2[C@H](O)[C@@H](O)[C@H](O)O[C@@H]2CO)[C@H](O)[C@@H](O)[C@@H]1O` [maltose], the “Relative Activity (%)” value is 100%.

Regarding `OC[C@H]1O[C@H](O[C@H]2[C@H](O)[C@@H](O)[C@@H](O[C@H]3[C@H](O)[C@@H](O)[C@@H](O[C@H]4[C@H](O)[C@@H](O)C(O)O[C@@H]4CO)O[C@@H]3CO)O[C@@H]2CO)[C@H](O)[C@@H](O)[C@@H]1O` (stereo partly drawn) [maltotetraose], the “Relative Activity (%)” value was 60.3%.

Consider `OC[C@H]1O[C@H](O[C@H]2[C@H](O)[C@@H](O)[C@@H](O[C@H]3[C@H](O)[C@@H](O)C(O)O[C@@H]3CO)O[C@@H]2CO)[C@H](O)[C@@H](O)[C@@H]1O` (stereo partly drawn) [maltotriose], for which the “Relative Activity (%)” value worked out at 77.4%.

For `O=C[C@@H](O)[C@@H](O)[C@H](O)[C@H](O)CO` [mannose], the “Relative Activity (%)” value was 52.4%.

Turning to `OC[C@H]1O[C@H](OC[C@H]2O[C@H](O[C@]3(CO)O[C@H](CO)[C@@H](O)[C@@H]3O)[C@H](O)[C@@H](O)[C@@H]2O)[C@H](O)[C@@H](O)[C@H]1O` [raffinose], the “Relative Activity (%)” value is 0%.

As for `OC[C@@H](O)[C@@H](O)[C@H](O)[C@@H](O)CO` [sorbitol], the “Relative Activity (%)” value came to 0%.

Take `OC[C@H]1O[C@@](CO)(O[C@H]2O[C@H](CO)[C@@H](O)[C@H](O)[C@H]2O)[C@@H](O)[C@@H]1O` [sucrose]: the “Relative Activity (%)” value is on record as 0%.

For `O=C[C@H](O)[C@@H](O)[C@H](O)CO` [xylose], the “Relative Activity (%)” value is reported as 53.7%.
